Results from patent US20240091169A1, “POL[…] FOR TREATING INFLAMMATORY DISEASES” (UNIVERSITY OF SOUTH CAROLINA, priority 2022, published 2024).

How the values were obtained:
[1] = test system: BMDMs cultured with C26 CM; experiment: Macrophage polarization of BMDMs cultured with C26 CM (flow cytometry); type: cell-based, C57BL/6 mice; conditions: 48 hr, PA vs VEH
Experimental: Bone marrow-derived macrophages (BMDMs) were isolated from healthy 10-14-week-old C57BL/6 male mice. Briefly, mice were euthanized by isoflurane overdose. Femurs were cleared of muscle and debris. The epiphyses of the femurs were cut and placed knee-down and spun down in a 1.5 mL tube. Bone marrow was collected and resuspended in complete DMEM (cDMEM; 10% FBS, 1% penicillin/streptomycin) and passed through two 100 μm strainers. Cells were plated on an untreated 10 cm dish in cDMEM and allowed to incubate at 37° C. for 4 hr. Adherent/mature monocytes and dendritic cells were discarded, while floating/immature monocytes were collected. Cells were subjected to RBC lysis and resuspended in bone marrow maintenance media (BMMM; 20% L929-conditioned media in cDMEM). Cells were then plated on surface-treated 6-well plates at a 250 k cells/well seeding density. On day 3, fresh BMMM was added. On day 5, media was aspirated and fresh BMMM was added. For M2 macrophage polarization experiments, 6-day mature macrophages were given either cDMEM+VEH, M2 media (cDMEM with 10 ng/mL IL-4)+VEH, or M2 media+1 μM PA. Cells were incubated for 24 hr. For C26 colon tumor conditioned media (C26 CM) experiments, 6-day mature macrophages were given either serum-free media (SFM)+VEH, 33% C26-conditioned media (C26 CM)+VEH, or 33% C26 CM+1, 2.5, or 5 μM PA. Cells were incubated for 48 hr. After incubation with these different treatments, cells were washed twice with PBS and incubated with 5 mM EDTA PBS at 4° C. for 20 min. Cells were then gently scraped and transferred into flow tubes, spun at 1600 rpm at 4° C. for 5 min, and washed in PBS before antibody staining. Cells were stained and analyzed for macrophages via flow cytometry as described above with the addition of analyzing macrophage phenotypes. From the CD11b^+CD68^+ macrophage population, macrophage phenotypes were determined based on CD206 and CD11c expression. CD206^−CD11c^− cells were identified as M0 macrophages; CD206^−CD11c^+ as M1 macrophages; CD206^+CD11c^− cells as M2 macrophages; CD206^+CD11c^+ as M1-M2 transitional macrophages. All cells were measured using a FACS Aria II (BD) and analyzed using FlowJo (BD Biosciences). Three independent experiments were carried out for each in vitro assessment.

[2] = test system: DSS-induced acute colitis; experiment: DSS mouse model, Experiment 2: acute colitis; type: in vivo, C57BL/6 female mice
Experimental: Experiment 2—Acute Colitis: 14-week-old C57BL/6 female mice were given 1 cycle of 2% DSS in drinking water for 7 days, immediately followed by 7 days of regular drinking water. Either vehicle or panaxynol was administered 3×/week beginning on the day prior to the first DSS cycle (day −1) until study completion (FIG. 10A). To ensure the induction of colitis and to quantify disease states, colitis symptoms were monitored every other day using the same DAI as above. Mice were euthanized on day 14—one day after the last dose of panaxynol was given. Colons were placed in the appropriate buffers for further analysis. Data presented in FIGS. 10-14 (i.e., histology, immunofluorescence, electron microscopy, and flow cytometry) was obtained using colonic tissue from 2 cohorts of Experiment 2—Acute Colitis.
Panaxynol (PA; C17H24O) was purchased from Biopurify Pytochemicals Ltd in sealed 5 mg/mL vials in pure 95% ethanol and stored at −20° C. PA was prepared fresh on the day of treatment by diluting in H2O to 1 mg/mL for administration (p.o.) at a dosage of 2.5 mg/kg. This dosage was chosen following a pilot dose-response study to determine PA's efficacy. […]
All mice underwent the same symptom monitoring and scoring. […] Symptom scores were calculated by scoring percent body weight loss, stool consistency, and rectal bleeding as previously described. Briefly, fresh colonic evacuates were smeared onto “Hemoccult” tape (Beckman Coulter) to assess severity of diarrhea and were tested with developer (Beckman Coulter) to assess rectal bleeding. Stool consistency was scored as follows: solid cylinder (0), soft cylinder and easily spreadable (2), and noncylindrical or runny (4). Bleeding was scored as follows: no positive detection of blood (0), detection of blood but not grossly visible (2), and gross visibility of blood (4). Body weight was calculated as percent bodyweight loss: 0%-5% (0), 6%-10% (1), 11%-15% (2), 15%-20% (3), 20%-25% (4), and >25% (5). Scores of all three categories were summed to obtain an overall symptom score for each mouse.
Prior to euthanasia, colonoscopies were performed (n=3/group) to visualize the colonic tissue and quantify the severity of disease (colitis and colorectal tumors) using an established protocol. Briefly, mice were anesthetized with isoflurane to perform a detailed endoscopic examination in which the endoscope was gently inserted into the rectum and through the anus. Air was applied to slowly set apart the intestinal walls for examination. As the scope advanced, pictures were taken frequently and the following were meticulously assessed and scored by the blinded primary investigator using the well-established scoring system to integrate evaluation of intestinal inflammation (i.e., focal lesions (edematous areas of mucosa, erosions/reddened areas, ulcers), perianal region findings (diarrhea, bloody anal discharge, or prolapse), transparency of the colonic wall (visualization of the intramural blood vessels), and presence of intestinal bleeding) and tumors. Scoring was performed as previously described with no modifications. Upon completion of colonoscopies, mice were placed on a warm pad set at 37° C. for 5 min.
Lamina propria (LP) cells were isolated from colons to be used for flow cytometry to identify immune cell populations within the colonic LP. Colons were rinsed in sterile ice-cold PBS and minced with scissors. Tissues were subjected to a cell dissociation solution (HBSS without Ca^2+Mg^2+ containing 5 mM EDTA and 1 mM DTT) in a shaking incubator for 30 min at 37° C. Tubes containing dissociated tissues were vortexed and passed through a 100 μm cell strainer; flow through containing intestinal epithelial cells (IECs) was discarded. Remaining tissue was subjected to a cell digestion buffer (HBSS with Ca^2+Mg^2+ containing 5% FBS, 5 mg/mL Collagenase D, 50 μg/mL DNase 1, and 1 U/mL Dispase) in a shaking incubator for 30 min at 37° C. Tubes were vortexed and passed through a 40 μm cell strainer. […]

**Q.** How did the “relative abundance of M0 macrophages” value [1] turn out when `C=CC(O)C#CC#CC/C=C\CCCCCCC` (stereo in doubt) [PA, 3(R)-(9Z)-heptadeca-1,9-dien-4,6-diyn-3-ol] was run?
**A.** Its value is “No significant differences”.

**Q.** And the “relative abundance of M1-M2 macrophages” value [1]?
**A.** The value was “No significant differences”.

**Q.** And the “relative abundance of M1 macrophages” value [1]?
**A.** Its value is “No significant differences”.

**Q.** And the “relative abundance of pro-tumoral M2 macrophages” value ([1]; p≤0.05)?
**A.** Its value is “significantly reduced”.

**Q.** What about the “goblet cell count per crypt” value ([2]; Alcian Blue, DSS+Veh -75% vs Control, p=0.0003) of the same molecule?
**A.** The value was “rescued”.

**Q.** What about the rectal bleeding ([2]; DAI, vs DSS+Veh) of the same molecule?
**A.** Its rectal bleeding is “decreased”.

**Q.** What about the stool consistency ([2]; DAI, vs DSS+Veh) of the same molecule?
**A.** The stool consistency was “improved”.

**Q.** And the average crypt width ([2]; H&E, DSS+Veh +124% vs Control, Pax vs Control p=0.641)?
**A.** The average crypt width was “not different from Control”.

**Q.** What about the “reduction in inflammation (endoscopic score)” value ([2]; day 14, vs DSS+Veh, p=0.012) of the same molecule?
**A.** Its value is 63%.

**Q.** And the “reduction in total endoscopic scores” value ([2]; day 14, vs DSS+Veh, p=0.014)?
**A.** The value was 62%.

**Q.** And the “reduction in total lesions (endoscopic score)” value ([2]; day 14, vs DSS+Veh, p=0.029)?
**A.** Its value is 58%.

**Q.** And the “reduction in erosions (endoscopic score)” value ([2]; day 14, vs DSS+Veh, p=0.033)?
**A.** Its value is 55%.

**Q.** And the “reduction in ulcers (endoscopic score)” value ([2]; day 14, vs DSS+Veh, p=0.047)?
**A.** Its value is 62%.

**Q.** And the “widening and gaping of the crypts (SEM 3000×)” value ([2]; distal colon)?
**A.** The value was “partially rescued”.

**Q.** What about the “edema in the intercellular space of IECs (TEM)” value ([2]; distal colon, edema seen only in DSS+Veh) of the same molecule?
**A.** The value was “no edema”.

**Q.** What about the “mucus on mucosa (SEM 2000×)” value ([2]; distal colon, vs DSS+Veh) of the same molecule?
**A.** Its value is “more areas of mucus formation, preservation, and abundance”.

**Q.** What about the body weight ([2]; end of study, not significant vs DSS+Veh 18.4±0.6, p=0.383) of the same molecule?
**A.** Its body weight is 19.1 ± 0.4 g.

**Q.** What about the “CD45+CD4+ helper T-cells in colonic LP” value ([2]; flow cytometry, between DSS-treated groups, p=0.446) of the same molecule?
**A.** Its value is “no significant differences”.

**Q.** And the “M1 macrophages in colonic LP” value ([2]; flow cytometry, vs DSS+Veh, p=0.011)?
**A.** Its value is “decreased”.

**Q.** What about the “relative abundance of naïve (M0) macrophages in colonic LP” value ([2]; flow cytometry, vs DSS+Veh, p=0.019) of the same molecule?
**A.** The value was “increased”.

**Q.** What about the “TCRβ+FoxP3+ T-regs in colonic LP” value ([2]; flow cytometry, vs DSS+Veh, p=0.027) of the same molecule?
**A.** The value was “significantly increased”.

**Q.** What about the “M2 macrophages in colonic LP” value ([2]; flow cytometry, vs DSS+Veh, p=0.041) of the same molecule?
**A.** The value was “decreased”.

**Q.** What about the “LiveCD45+ immune cells in colonic LP” value ([2]; flow cytometry, vs DSS+Veh, p=0.056, not statistically significant) of the same molecule?
**A.** The value was “trending increase”.

**Q.** And the “CD11b+CD68+ macrophages in colonic LP” value ([2]; flow cytometry, vs DSS+Veh, p=0.07, not statistically significant)?
**A.** Its value is “decrease”.

**Q.** What about the “transitional (M1/M2) macrophages in colonic LP” value ([2]; flow cytometry, within DSS-treated groups, p=0.085) of the same molecule?
**A.** Its value is “no significant differences”.

**Q.** And the “crypt width distribution curve” value ([2]; rightward shift Control to DSS+Veh, FIG. 11C)?
**A.** The value was “significantly (p≤0.05) improved”.

**Q.** What about the DAI scores ([2]; throughout treatment, vs DSS+Veh) of the same molecule?
**A.** Its DAI scores is “significantly (p≤0.05) improved”.
